Results taken from patent US20230210807A1, “USE OF BENZOATE COMPOUND IN TREATMENT OF SARS-COV-2 INFECTIONS” (ACADEMY OF MILITARY MEDICAL SCIENCES, priority 2020, published 2023).
Entries after “also recorded” stand apart in the source; their conditions may differ.

Legend:
Vero-E6 cells = assay: Cytotoxicity test of drugs (CCK-8 kit); conditions: 48 hours; for Cell viability (% of vehicle control): Vero-E6 cells
SARS-CoV-2 = assay: Reduction of viral nucleic acid load in SARS-CoV-2 infected Vero E6 cells (qRT-PCR of supernatant); format: cell-based, SARS-CoV-2 (nCoV-2019BetaCoV/Wuhan/WIV04/2019 strain); conditions: for Copy number of virus genome: Vero E6 cells, 100TCID50, 48 hours
MERS-CoV = conditions: in vitro, cited from earlier work

Question: With N=C(N)c1ccc2cc(OC(=O)c3ccc(N=C(N)N)cc3)ccc2c1 [Nafamostat, 6-amidino-2-naphthyl-4-guanidino benzoate] as the molecule, how does the “Cell viability (% of vehicle control)” value (Vero-E6 cells; 0.14 µM) read?
Answer: 103.25±2.53 % of vehicle control

Question: And the “Cell viability (% of vehicle control)” value (Vero-E6 cells; 0.41 µM)?
Answer: 106.14±1.77 % of vehicle control

Question: And the “Cell viability (% of vehicle control)” value (Vero-E6 cells; 1.23 µM)?
Answer: 95.85±2.57 % of vehicle control

Question: And the “Cell viability (% of vehicle control)” value (Vero-E6 cells; 3.70 µM)?
Answer: 94.88±4.44 % of vehicle control

Question: What about the “Cell viability (% of vehicle control)” value (Vero-E6 cells; 11.11 µM) of the same molecule?
Answer: 93.68±1.83 % of vehicle control

Question: What about the “Cell viability (% of vehicle control)” value (Vero-E6 cells; 33.33 µM) of the same molecule?
Answer: 92.64±2.16 % of vehicle control

Question: What about the “Cell viability (% of vehicle control)” value (Vero-E6 cells; 100 µM) of the same molecule?
Answer: 92.65±3.37 % of vehicle control

Question: And the “Cytotoxicity (in words)” value (Vero-E6 cells; all test concentrations, Vero E6 cells)?
Answer: no cytotoxicity was observed; also recorded: no toxic effect on the cells at all concentrations

Question: And the “Copy number of virus genome” value (SARS-CoV-2; 0.14 µM)?
Answer: 1169068894.5±28678551.13

Question: What about the “Copy number of virus genome” value (SARS-CoV-2; 0.41 µM) of the same molecule?
Answer: 2051893138.5±1115069812.46

Question: And the “Copy number of virus genome” value (SARS-CoV-2; 1.23 µM)?
Answer: 2805092897.49±419609425.32

Question: And the “Copy number of virus genome” value (SARS-CoV-2; 3.70 µM)?
Answer: 3601892897.5±680084251.56

Question: And the “Copy number of virus genome” value (SARS-CoV-2; 11.11 µM)?
Answer: 2116737884±785155013.49

Question: And the “Copy number of virus genome” value (SARS-CoV-2; 33.33 µM)?
Answer: 1015568394.5±70116949.22

Question: What about the “Copy number of virus genome” value (SARS-CoV-2; 100 µM, copies per milliliter per method) of the same molecule?
Answer: 395904281±285024470.56

Question: And the “Viral RNA load in the cells (in words)” value (SARS-CoV-2; 48 hours after infection by SARS-CoV-2, Vero E6 cells, FIG. 1(a))?
Answer: can reduce the viral RNA load

Question: And the “Inhibition of replication of SARS-CoV-2 virus genome in the infected supernatant (in words)” value (SARS-CoV-2; concentrations of 100 µM, 33 µM, 11.1 µM and 3.7 µM)?
Answer: could effectively inhibit the replication of SARS-CoV-2 virus genome

Question: What about the “IC50 relative to that of Camostat (times higher)” value (MERS-CoV; versus Camostat) of the same molecule?
Answer: 10 times

Question: What about the IC50 (MERS-CoV; read-out: IC50 (MERS-CoV infection in vitro)) of the same molecule?
Answer: 100 nM
